# Data from the kinase profiling compilation of Christmann-Franck et al. (2016).
# What was measured:
# Assay in all cases: radiometric filter-binding kinase assay
# INSRR (human) = INSRR (human) (UniProt P14616)
# MAPK9 (human) = MAPK9 (human) (UniProt P45984)
# EPHA4 (human) = EPHA4 (human) (UniProt P54764)
# SRPK1 (human) = SRPK1 (human) (UniProt Q96SB4)
# PKN2 (human) = PKN2 (human) (UniProt Q16513)
# CSNK2A1 (human) = CSNK2A1 (human) (UniProt P68400)
# DAPK1 (human) = DAPK1 (human) (UniProt P53355)
# MAP2K1 (human) = MAP2K1 (human) (UniProt Q02750)
# MAPKAPK2 (human) = MAPKAPK2 (human) (UniProt P49137)
# STK3 (human) = STK3 (human) (UniProt Q13188)
# RPS6KA5 KD1 KD2 (human) = RPS6KA5 KD1 KD2 (human) (UniProt O75582)
# PIM1 (human) = PIM1 (human) (UniProt P11309)
# PIM1 (human), sequence (P11309 whole entry, looked up): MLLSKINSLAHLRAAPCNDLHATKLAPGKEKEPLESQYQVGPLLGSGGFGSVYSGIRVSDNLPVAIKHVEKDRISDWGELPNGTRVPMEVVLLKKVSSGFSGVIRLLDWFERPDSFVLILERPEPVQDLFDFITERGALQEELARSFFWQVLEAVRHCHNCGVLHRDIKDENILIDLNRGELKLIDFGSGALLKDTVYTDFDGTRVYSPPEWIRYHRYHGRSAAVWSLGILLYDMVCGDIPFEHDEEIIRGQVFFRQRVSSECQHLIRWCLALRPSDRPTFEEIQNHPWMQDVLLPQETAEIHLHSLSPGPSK
# CDK2 CCNA2 (human) = CDK2 CCNA2 (human) (UniProt P20248+P24941)
# [1] = tested on: PAK2 (human), Q13177 [T402E]
# PAK6 (human) = PAK6 (human) (UniProt Q9NQU5)
# MYLK (human) = MYLK (human) (UniProt Q15746)
# EEF2K (human) = EEF2K (human) (UniProt O00418)
# EEF2K (human), sequence (O00418 whole entry, looked up): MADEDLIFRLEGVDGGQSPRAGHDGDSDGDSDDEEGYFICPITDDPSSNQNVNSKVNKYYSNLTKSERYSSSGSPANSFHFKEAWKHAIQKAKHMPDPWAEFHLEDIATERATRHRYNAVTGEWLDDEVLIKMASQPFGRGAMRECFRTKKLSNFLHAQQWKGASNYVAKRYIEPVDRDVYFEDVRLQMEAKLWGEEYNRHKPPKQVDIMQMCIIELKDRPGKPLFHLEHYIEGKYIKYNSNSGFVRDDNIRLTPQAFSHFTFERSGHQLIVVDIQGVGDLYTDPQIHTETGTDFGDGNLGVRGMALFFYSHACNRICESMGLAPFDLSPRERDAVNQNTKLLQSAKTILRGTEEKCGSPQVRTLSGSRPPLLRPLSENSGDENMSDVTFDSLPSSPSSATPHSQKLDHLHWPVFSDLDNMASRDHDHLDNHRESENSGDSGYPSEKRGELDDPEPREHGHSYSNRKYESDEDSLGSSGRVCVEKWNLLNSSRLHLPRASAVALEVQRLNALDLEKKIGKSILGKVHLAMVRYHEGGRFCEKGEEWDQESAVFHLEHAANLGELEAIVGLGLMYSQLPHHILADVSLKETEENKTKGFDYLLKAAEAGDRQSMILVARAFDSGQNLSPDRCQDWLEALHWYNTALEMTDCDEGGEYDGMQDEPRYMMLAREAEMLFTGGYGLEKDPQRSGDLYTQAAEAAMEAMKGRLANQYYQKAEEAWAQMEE
# BTK (human) = BTK (human) (UniProt Q06187)
# EPHB4 (human) = EPHB4 (human) (UniProt P54760)
# MKNK2 (human) = MKNK2 (human) (UniProt Q9HBH9)
# MKNK2 (human), sequence (Q9HBH9 whole entry, looked up): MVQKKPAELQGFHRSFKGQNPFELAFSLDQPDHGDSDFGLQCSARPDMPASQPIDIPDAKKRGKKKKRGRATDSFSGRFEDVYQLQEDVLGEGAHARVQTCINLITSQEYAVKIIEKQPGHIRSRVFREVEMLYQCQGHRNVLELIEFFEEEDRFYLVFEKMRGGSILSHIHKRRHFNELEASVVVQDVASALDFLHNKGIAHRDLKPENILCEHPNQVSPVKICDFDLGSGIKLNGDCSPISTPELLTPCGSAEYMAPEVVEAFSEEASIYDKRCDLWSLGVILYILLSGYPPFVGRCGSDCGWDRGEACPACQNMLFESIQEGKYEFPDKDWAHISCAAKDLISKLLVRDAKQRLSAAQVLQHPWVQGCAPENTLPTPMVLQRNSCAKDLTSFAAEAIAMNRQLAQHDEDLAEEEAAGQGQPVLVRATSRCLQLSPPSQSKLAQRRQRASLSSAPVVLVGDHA
# MARK3 (human) = MARK3 (human) (UniProt P27448)
# MAP3K9 (human) = MAP3K9 (human) (UniProt P80192)
# MAP3K5 (human) = MAP3K5 (human) (UniProt Q99683)
# CHEK1 (human) = CHEK1 (human) (UniProt O14757)
# CHEK1 (human), sequence (O14757 whole entry, looked up): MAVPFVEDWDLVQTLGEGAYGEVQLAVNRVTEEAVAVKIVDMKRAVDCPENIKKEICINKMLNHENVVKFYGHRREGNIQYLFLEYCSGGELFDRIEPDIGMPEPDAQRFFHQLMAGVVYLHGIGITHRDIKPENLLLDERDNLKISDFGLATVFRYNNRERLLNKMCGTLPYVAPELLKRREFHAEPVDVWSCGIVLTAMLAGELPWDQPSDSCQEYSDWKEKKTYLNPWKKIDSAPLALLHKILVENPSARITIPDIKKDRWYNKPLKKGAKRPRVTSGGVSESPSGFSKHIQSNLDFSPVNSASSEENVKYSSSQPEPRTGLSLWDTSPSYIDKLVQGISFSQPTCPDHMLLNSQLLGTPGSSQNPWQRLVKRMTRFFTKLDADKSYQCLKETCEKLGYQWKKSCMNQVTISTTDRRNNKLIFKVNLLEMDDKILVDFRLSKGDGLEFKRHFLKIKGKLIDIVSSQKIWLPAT
# TBK1 (human) = TBK1 (human) (UniProt Q9UHD2)
# TBK1 (human), sequence (Q9UHD2 whole entry, looked up): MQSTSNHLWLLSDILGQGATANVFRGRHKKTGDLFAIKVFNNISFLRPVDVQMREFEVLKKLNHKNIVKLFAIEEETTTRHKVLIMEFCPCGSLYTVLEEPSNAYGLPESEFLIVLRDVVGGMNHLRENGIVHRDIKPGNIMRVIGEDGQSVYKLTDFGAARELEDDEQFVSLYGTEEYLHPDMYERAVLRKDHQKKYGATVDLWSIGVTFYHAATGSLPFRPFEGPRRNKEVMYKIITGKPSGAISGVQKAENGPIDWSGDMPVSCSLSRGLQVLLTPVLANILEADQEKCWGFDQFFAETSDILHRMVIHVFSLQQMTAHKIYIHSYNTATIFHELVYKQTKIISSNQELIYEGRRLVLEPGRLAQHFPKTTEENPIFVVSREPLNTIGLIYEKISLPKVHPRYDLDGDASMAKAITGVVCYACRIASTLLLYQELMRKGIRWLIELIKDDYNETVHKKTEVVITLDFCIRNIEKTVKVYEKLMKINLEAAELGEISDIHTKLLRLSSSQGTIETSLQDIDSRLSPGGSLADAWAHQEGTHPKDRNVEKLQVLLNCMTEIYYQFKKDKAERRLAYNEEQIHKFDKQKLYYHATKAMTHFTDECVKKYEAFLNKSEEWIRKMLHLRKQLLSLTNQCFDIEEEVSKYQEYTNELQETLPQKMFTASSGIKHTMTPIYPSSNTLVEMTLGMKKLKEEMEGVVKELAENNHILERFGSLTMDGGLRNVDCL
# YES1 (human) = YES1 (human) (UniProt P07947)
# PIM3 (human) = PIM3 (human) (UniProt Q86V86)
# PIM2 (human) = PIM2 (human) (UniProt Q9P1W9)
# [2] = tested on: RPS6KB1 (human), P23443 [T412E]
# IKBKB (human) = IKBKB (human) (UniProt O14920)
# IKBKB (human), sequence (O14920 whole entry, looked up): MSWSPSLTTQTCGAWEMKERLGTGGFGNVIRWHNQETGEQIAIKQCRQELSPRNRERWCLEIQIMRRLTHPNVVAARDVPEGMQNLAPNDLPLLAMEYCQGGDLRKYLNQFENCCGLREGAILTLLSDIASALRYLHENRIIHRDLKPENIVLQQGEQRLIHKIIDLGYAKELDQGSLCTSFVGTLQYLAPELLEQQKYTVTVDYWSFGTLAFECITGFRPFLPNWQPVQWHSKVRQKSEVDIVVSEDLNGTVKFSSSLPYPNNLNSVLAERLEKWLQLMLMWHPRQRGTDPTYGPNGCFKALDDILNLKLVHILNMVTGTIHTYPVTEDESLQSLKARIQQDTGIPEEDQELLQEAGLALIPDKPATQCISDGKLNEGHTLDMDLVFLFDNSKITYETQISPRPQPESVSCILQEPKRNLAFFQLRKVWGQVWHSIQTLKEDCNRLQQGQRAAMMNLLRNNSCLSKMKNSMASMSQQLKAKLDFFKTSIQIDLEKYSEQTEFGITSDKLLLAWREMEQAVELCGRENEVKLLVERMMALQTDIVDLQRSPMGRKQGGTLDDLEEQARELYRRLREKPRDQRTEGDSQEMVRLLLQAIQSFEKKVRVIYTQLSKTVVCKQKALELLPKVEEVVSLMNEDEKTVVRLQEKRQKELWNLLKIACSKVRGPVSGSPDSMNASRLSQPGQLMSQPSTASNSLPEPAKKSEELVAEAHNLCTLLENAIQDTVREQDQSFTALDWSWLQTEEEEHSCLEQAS
# EPHB1 (human) = EPHB1 (human) (UniProt P54762)
# TTK (human) = TTK (human) (UniProt P33981)
# MARK4 (human) = MARK4 (human) (UniProt Q96L34)
# MARK4 (human), sequence (Q96L34 whole entry, looked up): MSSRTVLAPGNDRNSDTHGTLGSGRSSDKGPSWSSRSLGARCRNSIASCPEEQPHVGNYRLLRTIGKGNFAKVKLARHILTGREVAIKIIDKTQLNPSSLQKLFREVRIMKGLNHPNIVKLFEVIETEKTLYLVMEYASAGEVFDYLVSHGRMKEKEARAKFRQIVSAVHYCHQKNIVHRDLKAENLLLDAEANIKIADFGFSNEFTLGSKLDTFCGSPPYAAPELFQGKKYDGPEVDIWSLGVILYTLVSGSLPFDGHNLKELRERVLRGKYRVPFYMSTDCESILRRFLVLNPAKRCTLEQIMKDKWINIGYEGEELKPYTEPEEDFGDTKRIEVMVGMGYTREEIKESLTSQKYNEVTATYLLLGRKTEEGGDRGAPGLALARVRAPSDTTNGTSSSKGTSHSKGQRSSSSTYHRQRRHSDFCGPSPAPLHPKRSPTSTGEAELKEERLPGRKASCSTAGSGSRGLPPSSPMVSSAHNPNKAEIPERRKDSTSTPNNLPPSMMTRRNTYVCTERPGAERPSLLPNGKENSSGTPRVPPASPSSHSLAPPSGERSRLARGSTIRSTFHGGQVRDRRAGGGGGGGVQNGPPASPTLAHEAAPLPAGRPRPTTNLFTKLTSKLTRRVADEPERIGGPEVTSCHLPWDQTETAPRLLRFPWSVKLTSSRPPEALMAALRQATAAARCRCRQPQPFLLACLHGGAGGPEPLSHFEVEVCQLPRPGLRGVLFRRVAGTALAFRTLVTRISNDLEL
# MAP2K2 (human) = MAP2K2 (human) (UniProt P36507)
# NEK6 (human) = NEK6 (human) (UniProt Q9HC98)
# NEK6 (human), sequence (Q9HC98 whole entry, looked up): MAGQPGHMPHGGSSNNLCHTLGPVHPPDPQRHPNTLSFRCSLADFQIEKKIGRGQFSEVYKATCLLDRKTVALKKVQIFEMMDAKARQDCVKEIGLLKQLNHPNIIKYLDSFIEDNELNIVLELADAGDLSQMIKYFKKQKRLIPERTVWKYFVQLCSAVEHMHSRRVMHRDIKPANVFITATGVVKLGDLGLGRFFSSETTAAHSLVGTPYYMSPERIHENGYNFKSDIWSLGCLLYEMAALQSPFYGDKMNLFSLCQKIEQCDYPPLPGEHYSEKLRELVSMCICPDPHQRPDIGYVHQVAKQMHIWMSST
# GCK (human) = GCK (human) (UniProt Q12851)
# CSNK2A1 (human), sequence (P68400 whole entry, looked up): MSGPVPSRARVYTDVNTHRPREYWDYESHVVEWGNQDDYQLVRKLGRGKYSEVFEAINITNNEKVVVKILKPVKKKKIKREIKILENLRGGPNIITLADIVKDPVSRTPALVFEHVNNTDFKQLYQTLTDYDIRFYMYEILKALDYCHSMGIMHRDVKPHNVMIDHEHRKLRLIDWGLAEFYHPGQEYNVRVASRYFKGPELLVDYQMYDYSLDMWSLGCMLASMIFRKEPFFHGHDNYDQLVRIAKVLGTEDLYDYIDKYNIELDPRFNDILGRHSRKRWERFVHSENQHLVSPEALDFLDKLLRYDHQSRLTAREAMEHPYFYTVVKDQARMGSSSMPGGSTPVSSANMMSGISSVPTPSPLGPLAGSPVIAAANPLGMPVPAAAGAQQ
structure (smiles),measurement,setting,value
CNc1nc(-c2ccc3c(N)n[nH]c3c2)cc(N2C[C@@H](C(=O)NC3CCCCC3)CC[C@H]2C)n1,residual activity,INSRR (human); compound 0.01 µM,111%
same,residual activity,INSRR (human); compound 0.1 µM,111%
same,residual activity,INSRR (human); compound 1.0 µM,117%
same,residual activity,MAPK9 (human); compound 0.01 µM,117%
same,residual activity,MAPK9 (human); compound 0.1 µM,126%
same,residual activity,MAPK9 (human); compound 1.0 µM,104%
same,residual activity,MAPK9 (human); compound 10.0 µM,114%
same,residual activity,EPHA4 (human); compound 1.0 µM,86%
same,residual activity,EPHA4 (human); compound 10.0 µM,98%
same,residual activity,SRPK1 (human); compound 0.01 µM,106%
same,residual activity,SRPK1 (human); compound 0.1 µM,120%
same,residual activity,SRPK1 (human); compound 1.0 µM,104%
same,residual activity,SRPK1 (human); compound 10.0 µM,90%
same,residual activity,PKN2 (human); compound 0.01 µM,90%
same,residual activity,PKN2 (human); compound 0.1 µM,102%
same,residual activity,PKN2 (human); compound 1.0 µM,118%
same,residual activity,PKN2 (human); compound 10.0 µM,81%
same,residual activity,CSNK2A1 (human); compound 0.01 µM,103%
same,residual activity,CSNK2A1 (human); compound 0.1 µM,104%
same,residual activity,CSNK2A1 (human); compound 1.0 µM,91%
same,residual activity,CSNK2A1 (human); compound 10.0 µM,111%
same,residual activity,DAPK1 (human); compound 1.0 µM,35%
same,residual activity,DAPK1 (human); compound 10.0 µM,12%
same,residual activity,MAP2K1 (human); compound 0.01 µM,86%
same,residual activity,MAP2K1 (human); compound 0.1 µM,101%
same,residual activity,MAP2K1 (human); compound 1.0 µM,85%
same,residual activity,MAP2K1 (human); compound 10.0 µM,74%
same,residual activity,MAPKAPK2 (human); compound 0.01 µM,104%
same,residual activity,MAPKAPK2 (human); compound 0.1 µM,111%
same,residual activity,MAPKAPK2 (human); compound 1.0 µM,86%
same,residual activity,MAPKAPK2 (human); compound 10.0 µM,84%
same,residual activity,STK3 (human); compound 0.01 µM,116%
same,residual activity,STK3 (human); compound 0.1 µM,128%
same,residual activity,STK3 (human); compound 1.0 µM,91%
same,residual activity,STK3 (human); compound 10.0 µM,84%
same,residual activity,RPS6KA5 KD1 KD2 (human); compound 0.01 µM,102%
same,residual activity,RPS6KA5 KD1 KD2 (human); compound 0.1 µM,100%
same,residual activity,RPS6KA5 KD1 KD2 (human); compound 1.0 µM,95%
same,residual activity,RPS6KA5 KD1 KD2 (human); compound 10.0 µM,66%
same,residual activity,PIM1 (human); compound 0.01 µM,99%
same,residual activity,PIM1 (human); compound 0.1 µM,100%
same,residual activity,PIM1 (human); compound 1.0 µM,112%
same,residual activity,PIM1 (human); compound 10.0 µM,93%
same,residual activity,CDK2 CCNA2 (human); compound 0.01 µM,104%
same,residual activity,CDK2 CCNA2 (human); compound 0.1 µM,101%
same,residual activity,CDK2 CCNA2 (human); compound 1.0 µM,103%
same,residual activity,CDK2 CCNA2 (human); compound 10.0 µM,85%
same,residual activity,[1]; compound 0.01 µM,105%
same,residual activity,[1]; compound 0.1 µM,119%
same,residual activity,[1]; compound 1.0 µM,102%
same,residual activity,[1]; compound 10.0 µM,77%
same,residual activity,PAK6 (human); compound 0.01 µM,108%
same,residual activity,PAK6 (human); compound 0.1 µM,120%
same,residual activity,PAK6 (human); compound 1.0 µM,99%
same,residual activity,PAK6 (human); compound 10.0 µM,96%
same,residual activity,MYLK (human); compound 0.01 µM,116%
same,residual activity,MYLK (human); compound 0.1 µM,113%
same,residual activity,MYLK (human); compound 1.0 µM,99%
same,residual activity,MYLK (human); compound 10.0 µM,62%
same,residual activity,EEF2K (human); compound 0.01 µM,108%
same,residual activity,EEF2K (human); compound 0.1 µM,100%
same,residual activity,EEF2K (human); compound 1.0 µM,105%
same,residual activity,EEF2K (human); compound 10.0 µM,100%
same,residual activity,BTK (human); compound 0.01 µM,126%
same,residual activity,BTK (human); compound 0.1 µM,121%
same,residual activity,BTK (human); compound 1.0 µM,97%
same,residual activity,BTK (human); compound 10.0 µM,90%
same,residual activity,EPHB4 (human); compound 1.0 µM,119%
same,residual activity,EPHB4 (human); compound 10.0 µM,117%
same,residual activity,MKNK2 (human); compound 0.01 µM,91%
same,residual activity,MKNK2 (human); compound 1.0 µM,80%
same,residual activity,MKNK2 (human); compound 10.0 µM,94%
same,residual activity,MARK3 (human); compound 0.01 µM,113%
same,residual activity,MARK3 (human); compound 0.1 µM,109%
same,residual activity,MARK3 (human); compound 1.0 µM,88%
same,residual activity,MARK3 (human); compound 10.0 µM,87%
same,residual activity,MAP3K9 (human); compound 0.01 µM,110%
same,residual activity,MAP3K9 (human); compound 0.1 µM,111%
same,residual activity,MAP3K9 (human); compound 1.0 µM,93%
same,residual activity,MAP3K9 (human); compound 10.0 µM,78%
same,residual activity,MAP3K5 (human); compound 1.0 µM,106%
same,residual activity,MAP3K5 (human); compound 10.0 µM,99%
same,residual activity,CHEK1 (human); compound 0.01 µM,111%
same,residual activity,CHEK1 (human); compound 0.1 µM,106%
same,residual activity,CHEK1 (human); compound 1.0 µM,96%
same,residual activity,CHEK1 (human); compound 10.0 µM,103%
same,residual activity,TBK1 (human); compound 0.01 µM,110%
same,residual activity,TBK1 (human); compound 0.1 µM,115%
same,residual activity,TBK1 (human); compound 1.0 µM,89%
same,residual activity,TBK1 (human); compound 10.0 µM,81%
same,residual activity,YES1 (human); compound 0.01 µM,122%
same,residual activity,YES1 (human); compound 0.1 µM,119%
same,residual activity,YES1 (human); compound 1.0 µM,106%
same,residual activity,YES1 (human); compound 10.0 µM,98%
same,residual activity,PIM3 (human); compound 0.01 µM,105%
same,residual activity,PIM3 (human); compound 0.1 µM,112%
same,residual activity,PIM3 (human); compound 1.0 µM,94%
same,residual activity,PIM3 (human); compound 10.0 µM,73%
same,residual activity,PIM2 (human); compound 0.01 µM,97%
same,residual activity,PIM2 (human); compound 1.0 µM,97%
same,residual activity,PIM2 (human); compound 10.0 µM,110%
same,residual activity,[2]; compound 0.01 µM,111%
same,residual activity,[2]; compound 0.1 µM,106%
same,residual activity,[2]; compound 1.0 µM,108%
same,residual activity,[2]; compound 10.0 µM,81%
same,residual activity,IKBKB (human); compound 0.01 µM,105%
same,residual activity,IKBKB (human); compound 0.1 µM,112%
same,residual activity,IKBKB (human); compound 1.0 µM,118%
same,residual activity,IKBKB (human); compound 10.0 µM,103%
same,residual activity,EPHB1 (human); compound 1.0 µM,111%
same,residual activity,EPHB1 (human); compound 10.0 µM,118%
same,residual activity,TTK (human); compound 0.01 µM,90%
same,residual activity,TTK (human); compound 0.1 µM,98%
same,residual activity,TTK (human); compound 1.0 µM,84%
same,residual activity,TTK (human); compound 10.0 µM,61%
same,residual activity,MARK4 (human); compound 0.01 µM,106%
same,residual activity,MARK4 (human); compound 0.1 µM,114%
same,residual activity,MARK4 (human); compound 1.0 µM,99%
same,residual activity,MARK4 (human); compound 10.0 µM,103%
same,residual activity,MAP2K2 (human); compound 1.0 µM,114%
same,residual activity,MAP2K2 (human); compound 10.0 µM,94%
same,residual activity,NEK6 (human); compound 0.01 µM,98%
same,residual activity,NEK6 (human); compound 0.1 µM,101%
same,residual activity,NEK6 (human); compound 1.0 µM,84%
same,residual activity,NEK6 (human); compound 10.0 µM,79%
same,residual activity,GCK (human); compound 0.01 µM,109%
same,residual activity,GCK (human); compound 0.1 µM,116%
same,residual activity,GCK (human); compound 1.0 µM,97%
same,residual activity,GCK (human); compound 10.0 µM,86%
